Among the data in patent US7034019B2, “Prodrugs of HIV replication inhibiting pyrimidines” (Janssen Pharmaceutica N.V., priority 2000, dated 2006) are IC50 and melting point values, retold here.

The structures appear in SMILES notation. Where only a bound is given, the exact number is not on record here.

Data set [1] has as its system HIV. As to the kind of experiment: anti-HIV activity (MT-4/MTT) of incubates after incubation in rat subcellular liver fractions. The format is cell-based. Conditions: Human immunodeficiency virus 1, MT4, 2 h; after incubation in rat subcellular liver fraction, 120 minutes; MT-4 cells. The method, then:
(§1) The metabolism of the present compounds was studied in subcellular liver fractions (1200×g) of rat, dog or human. The compounds were incubated at a final […] concentration of 30 μM; incubations were performed up to 120 minutes at a final protein concentration equivalent to 1 mg/ml microsomal proteins. Reactions were stopped by the addition of an equal volume (2 ml) of […]. Samples were stored at ≦−18° C. until analysis. […] Table 2 lists IC50 values prior to and after incubation in subcellular liver fractions.
(§2) A rapid, sensitive and automated assay procedure was used for the in vitro evaluation of anti-HIV agents. […] The viability of both HIV- and mock-infected cells was assessed spectrophotometrically via the in situ reduction of 3-(4,5-dimethylthiazol-2-yl)-2,5-diphenyltetrazolium bromide (MTT). […] The percent protection achieved by the compound in HIV-infected cells was calculated by the following formula:
(§3) [formula] whereby (ODT)HIV is the optical density measured with a given concentration of the test compound in HIV-infected cells; (ODC)HIV is the optical density measured for the control untreated HIV-infected cells; (ODC)MOCK is the optical density measured for the control untreated mock-infected cells; all optical density values were determined at 540 nm. […]

Data set [2] relates to HIV. Put plainly: anti-HIV activity (MT-4/MTT) of incubates after incubation in human subcellular liver fractions. The following applies: after incubation in human subcellular liver fraction, MT-4 cells. The format is cell-based. On the procedure: as §1, §2, §3
Data set [3] has as its system HIV. Put plainly: anti-HIV activity (MT-4/MTT) of incubates after incubation in dog subcellular liver fractions. The data set is classed as cell-based. The following applies: Human immunodeficiency virus 1, MT4, 2 h; after incubation in dog subcellular liver fraction, 120 minutes; MT-4 cells. On the procedure: as §1, §2, §3
Data set [4] concerns HIV. Put plainly: anti-HIV activity in MT-4 cells (MTT, HIV-induced cytopathic effect), prior to incubation. The format is cell-based. The following applies: Human immunodeficiency virus 1, MT4; prior to incubation in subcellular liver fractions; HIV-infected MT-4 cells; read-out: IC50 before. The method, then:
as §1, §2, §3
(In general: Cytopathic effects are the visible damage that an infection or toxin causes in cultured cells.)

Consider `CCOCN(c1ccc(C#N)cc1)c1ncc(Br)c(Oc2c(C)cc(C#N)cc2C)n1` [Compound 1], for which the melting point – broadly, the temperature, or range, at which the solid turns liquid – was in the range of 181 to 182 °C. Also, in the data set with HIV [1], inhibition was half-maximal at 175 nM (IC50). Further, the IC50 (usually the concentration at which inhibition is half-maximal) with HIV [2] (Human immunodeficiency virus 1, MT4, 0.5 h, 30 minutes) was determined as 293 nM. Moreover, in the data set on HIV [2] (Human immunodeficiency virus 1, MT4, 2 h, 120 minutes), the IC50 is 165 nM. The IC50 in the data set on HIV [3] amounted to 138 nM. Further, the IC50 in the data set on HIV [4] was > 1000 nM.

The molecule `Cc1cc(C#N)cc(C)c1Oc1nc(N(COCCO)c2ccc(C#N)cc2)ncc1Br` [Compound 3] showed a melting point of 199 to 200 °C. For the same molecule, it took 809 nM to reach half-maximal inhibition in the data set on HIV [3] (IC50). The IC50 in the data set on HIV [4] was > 1000 nM.
